Test system: healthy subjects
Experiment: CANTAB global composite score
Format: in vivo, human
Conditions: 10 mg, Day 7
Procedure: The following list of outcome measures are non-exhaustive. • a. The short-term change from Baseline (Day −1 [Visit 2]) to Day 7 (Visit 5) in cognitive measures of attention, spatial and working memory and executive function was measured by a composite score of the CANTAB Panel (Spatial Working Memory [SWM], Rapid Visual Information Processing [RVP], Paired Associates Learning [PAL]). • b. The short-term change from Baseline (Day −1 [Visit 2]) to Day 7 (Visit 5) in Social Cognition Panel scales (Pictorial Empathy Test [PET], Reading the Mind in the Eyes Test [RMET], Toronto Empathy Questionnaire [TEQ], Social Value Orientation [SVO], Scale of Social Responsibility [SSR]). • c. The change from Baseline (Day −1 [Visit 2]) to Day 28 (Visit 6) in cognitive measures of attention, spatial and working memory and executive function as measured by a composite score of the CANTAB Panel (SWM, RVP, PAL). • d. […] Dose-related differences between cognitive effects of psilocybin at Baseline (Day −1 [Visit 2]), Day 7 (Visit 5) and Day 28 (Visit 6), as measured by a composite score of the CANTAB Panel (SWM, RVP, PAL). • f. Dose-related differences between psychological effects of psilocybin at Baseline (Day −1 [Visit 2]), Day 7 (Visit 5) and Day 84 (Visit 7), as measured by Social Cognition Panel scales (PET, RMET, TEQ, SVO, SSR). • g. […]

CN(C)CCc1c[nH]c2cccc(OP(=O)(O)O)c12 [Psilocybin, psilocybin]
CANTAB global composite score, effect size of difference from placebo: 0.53 | CANTAB global composite score, LS mean difference from placebo (p value ~0.04460): −0.1832

— patent US20230023092A1, “TREATMENT OF DEPRESSION AND OTHER VARIOUS DISORDERS WITH PSILOCYBIN” (COMPASS […], priority 2019, published 2023)
